According to patent US20140072990A1, “FLUORESCENT SUBSTRATE FOR DETECTION OF ENZYMATIC ACTIVITY OF NITRILE-RELATED ENZYME” (The University of Tokyo, priority 2010, published 2014):
Where two headings read alike, the source gives them in different places. Values belong to the compound of their own block, whether it stands above or below them.

Columns and labels:
[1] = Fluorescence quantum yield measurement of compounds 1 to 6; assay type: physicochemical
Description: Compounds 1 to 6 obtained above were measured for their fluorescence.
Compounds 1 to 6 were also measured for their fluorescence quantum yield (Φfl). […] With respect to compounds 5 and 6, it should be noted that their fluorescence quantum yields were calculated as values in isolated form based on the concentration ratio determined by HPLC.

[2] = target: T1, Rhodococcus rhodochrous strain J1-derived nitrile hydratase (Rhodococcus rhodochrous, UniProt P21219+P21220); assay: Detection of nitrile hydratase-catalyzed enzymatic reaction using fluorometer (Example 5); assay type: biochemical; conditions: for increase in fluorescence in comparison with a solution not containing the cell-free extract: crude nitrile hydratase solution, 37° C., 5 h after addition, 490 nm excitation light
T1 construct: made in house; host or cells: Rhodococcus rhodochrous ATCC12674 transformed with pSJ034; crude cell-free extract
T1 sequence (P21219 1-203): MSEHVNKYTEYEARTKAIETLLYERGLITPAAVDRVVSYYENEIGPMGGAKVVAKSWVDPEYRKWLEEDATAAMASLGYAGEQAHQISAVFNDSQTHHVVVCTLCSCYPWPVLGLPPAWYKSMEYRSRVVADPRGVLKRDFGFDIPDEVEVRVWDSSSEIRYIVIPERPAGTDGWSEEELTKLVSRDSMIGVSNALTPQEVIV
T1 sequence (P21220 1-229): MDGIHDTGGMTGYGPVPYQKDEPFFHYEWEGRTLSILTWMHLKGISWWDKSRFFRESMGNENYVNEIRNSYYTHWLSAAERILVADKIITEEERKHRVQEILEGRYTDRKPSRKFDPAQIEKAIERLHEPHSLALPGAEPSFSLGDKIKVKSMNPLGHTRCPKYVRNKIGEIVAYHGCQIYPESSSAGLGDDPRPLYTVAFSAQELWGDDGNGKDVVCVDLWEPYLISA
Description: Nitrile hydratase solution was prepared in the same manner as shown in Example 2.
(§1) 178 μL of sodium phosphate buffer (200 mM, pH 7.3) and 2 μL of 1 mM fluorescent substrate (compound 7 or compound 2: dissolved in DMSO) were mixed together and pre-incubated at 37° C. The cell-free extract prepared above (20 μL) was added to initiate the reaction. Sampling was conducted at one hour intervals by addition of 380 μL sodium phosphate buffer (200 mM, pH 7.3) to 20 μL reaction solution, and each sample was measured for its fluorescence using a spectrophotofluorometer, model F-4500 (Hitachi High-Technologies Corporation, Japan). The measurement was performed with 490 nm excitation light under the following conditions: a slit width of 2.5 nm/2.5 nm, a photomultiplier voltage of 700 V and 37° C.

[3] = tested on: Rhodococcus sp. strain SK92-derived nitrilase; assay: Nitrilase-catalyzed reaction with cell-free extract, detection with fluorescence imager (Example 3); assay type: biochemical; conditions: 30° C., 1 hour, excited at 488 nm, detected at 530 nm; JM109/pUC118 control showed no change
Description: (§2) 10 μL of sodium phosphate buffer (pH 7.0), 75 μL of sterilized water and 5 μL of 0.01 mM nitrile fluorescent substrate (compound 2: dissolved in 10% DMSO) were mixed together and pre-incubated at 30° C. The cell-free extract prepared above (10 μL) was added to initiate the reaction. After the reaction at 30° C. for 1 hour, the mixture was transferred to a 96-well microplate and fluorescence was detected with a fluorescence imager (BioRad Pharos FX molecular Imager, excited at 488 nm, detected at 530 nm).
A recombinant E. coli, JM109/pSK002, which highly expresses Rhodococcus sp. strain SK92-derived nitrilase (JP 8-173169 A) was inoculated into 1 ml of a 50 ampicillin-containing LB medium (1% Bactotryptone, 0.5% Bactoyeast extract, 0.5% NaCl) and pre-cultured at 37° C. for 7 hours. The culture broth was taken in a volume of 0.1 ml and added to 100 ml of the same medium (containing 50 μg/ml ampicillin and 1 mM IPTG), followed by shaking culture at 37° C. for 15 hours. The resulting culture broth was centrifuged (3,700×g, 10 minutes, 4° C.) to collect the cells, which were then washed with 10 mM sodium phosphate buffer (pH 7.0) and suspended in the same buffer. As a control strain, JM109/pUC118 was used. […]
In the same manner as shown in Example 2, the reaction was performed using a nitrile fluorescent substrate (compound 2), followed by detection with a fluorescence imager.

[4] = tested on: Rhodococcus sp. strain SK92-derived nitrilase; assay: Nitrilase-catalyzed reaction for 24 hours, observation by the naked eye (Example 4); assay type: biochemical; conditions: 0.1 mM substrate stock, JM109/pUC118 control showed little change in color
Description: 10 μL of sodium phosphate buffer (pH 7.0), 75 μL of sterilized water and 5 μL of 0.1 mM nitrile fluorescent substrate (compound 2: dissolved in DMSO) were mixed together and pre-incubated at 30° C. A cell-free extract (10 μL), which had been prepared in the same manner as shown in Example 3, was added to initiate the reaction.

[5] = Fluorescence quantum yield, absolute PL quantum yield measurement system (Quantaurus-QY); assay type: physicochemical; conditions: 0.2 μM, 0.02% DMSO, 200 mM sodium phosphate buffer pH 7.3, 470 nm excitation light
Description: The absorption spectra and fluorescence quantum yields of the compounds were measured as follows.
A 1 mM solution of compound 7 in DMSO was prepared and this solution was added to 200 mM sodium phosphate buffers of pH 2 to 12 to prepare 1 μM sample solutions containing 0.1% DMSO. These sample solutions were measured for their absorption spectra between 300 nm and 600 nm with an ultraviolet and visible spectrophotometer UV-2450 (Shimadzu Corporation, Japan). In addition, a 0.2 μM sample solution of compound 7 containing 0.02% DMSO in 200 mM sodium phosphate buffer (pH 7.3) was prepared and measured for its fluorescence quantum yield using an absolute PL quantum yield measurement system, Quantaurus-QY (Hamamatsu Photonics K.K., Japan), under irradiation with 470 nm excitation light.

[6] = target: T1, Rhodococcus rhodochrous strain J1-derived nitrile hydratase; assay: Nitrile hydratase-catalyzed reaction with cell-free extract, detection with fluorescence imager (Example 2); assay type: biochemical; conditions: 30° C., 1 hour, excited at 488 nm, detected at 530 nm; vector pK4 control showed no change
Text: Plasmid pSJ034 designed to constitutively express Rhodococcus rhodochrous strain J1-derived nitrile hydratase in Rhodococcus bacterial cells was introduced into Rhodococcus rhodochrous strain ATCC12674. pSJ034 has been prepared from plasmid pSJ023 as described in the specification of JP 10-337185 A. pSJ023 was deposited as a transformant, R. rhodochrous ATCC12674/pSJ023 (FERM BP-6232), with the International Patent Organism Depositary, the National Institute of Advanced Industrial Science and Technology.
Rhodococcus rhodochrous strain ATCC12674 was transformed with plasmid pSJ034 to prepare ATCC12674/pSJ034. The strain 12674 was also transformed with vector pK4 for use in a control experiment.
The colony was cultured as follows. The colony was inoculated into a kanamycin (50 mg/L)-containing MYK medium (10 ml) and pre-cultured at 30° C. for 24 hours. […]
as §2, with “The cell-free extract prepared above (10 μL) was added to initiate the reaction.” left out

[7] = target: T1, Rhodococcus rhodochrous strain J1-derived nitrile hydratase; assay: HPLC analysis on nitrile hydratase-catalyzed reaction solution (Example 5); assay type: biochemical; conditions: 37° C., 5 hours, absorption at 500 nm
Description: (§3) After reaction at 37° C. for 5 hours as described above, the reaction solution was analyzed by HPLC under the following conditions. • Model: fluid delivery pump PU-2080 (JASCO) • Column: Inertsil ODS-3 (4.6×250 mm) column (GL Sciences Inc.) • Solvent: eluted with a linear gradient from 75% acetonitrile/0.1% TFA in water (0 min) to 15% acetonitrile/0.1% TFA in water (30 min) • Detection: detector MD-2010 (JASCO), monitored by absorption at 500 nm

[8] = tested on: Rhodococcus sp. strain SK92-derived nitrilase; assay: HPLC analysis on nitrilase-catalyzed reaction solution (Example 6); assay type: biochemical
Description: as §3
Nitrilase activity was analyzed in accordance with the procedures shown in Example 4.

[9] = tested on: Rhodococcus sp. strain SK92-derived nitrilase; assay: Detection of nitrilase-catalyzed enzymatic reaction using fluorometer (Example 6); assay type: biochemical
Description: as §1
Nitrilase solution was prepared in the same manner as shown in Example 3.
Detection was conducted in accordance with the procedures shown in Example 5, provided that the compound used in the experiment was compound 7 and the enzyme solutions used were a cell-free extract derived from JM109/pSK002 (containing nitrilase) and a cell-free extract derived from the above control strain JM109/pTrc99A (having no nitrilase activity).

[10] = Stability of product in nitrile hydratase-catalyzed reaction solution by HPLC (Example 7); assay type: in vitro ADME; conditions: absorption at 500 nm
Description: (§4) Product stability after enzymatic reaction was studied by HPLC analysis.
(§5) For HPLC analysis of the nitrile hydratase-catalyzed reaction solution (160 μL), the above pump, column, solvent conditions and detector were used to monitor absorption at 500 nm. On the other hand, for analysis of the nitrilase-catalyzed reaction solution (160 μL), the same procedure as used for analysis of the nitrile hydratase-catalyzed reaction solution was repeated to monitor absorption at 500 nm.

[11] = Stability of product in nitrilase-catalyzed reaction solution by HPLC (Example 7); assay type: in vitro ADME; conditions: absorption at 500 nm
Description: as §4, §5

[12] = calculated as values in isolated form based on the concentration ratio determined by HPLC (mixture of compounds 5 and 6)

Compound: COC(=O)c1ccc(C#N)cc1-c1c2ccc(=O)cc-2oc2cc(O)ccc12 [compound 1]
Fluorescence quantum yield (Φf1) [1]: 0.007

Compound: COC(=O)c1cc(C#N)ccc1-c1c2ccc(=O)cc-2oc2cc(O)ccc12 [compound 2]
increase in fluorescence in comparison with a solution not containing the cell-free extract [2]: ~3.9 fold
Fluorescence quantum yield (Φf1) [1]: 0.161
change in intensity of fluorescence with nitrilase-expressing recombinant cell-free extract [3]: significant increase in the intensity of fluorescence
fluorescence observed by the naked eye with nitrilase-expressing recombinant cell-free extract [4]: significant green fluorescence was observed
fluorescence quantum yield [5]: 0.172
change in intensity of fluorescence with nitrile hydratase-expressing recombinant cell-free extract [6]: significant increase in the intensity of fluorescence

Compound: COC(=O)c1ccc(C(N)=O)cc1-c1c2ccc(=O)cc-2oc2cc(O)ccc12 [compound 3]
Fluorescence quantum yield (Φf1) [1]: 0.018

Compound: COC(=O)c1cc(C(N)=O)ccc1-c1c2ccc(=O)cc-2oc2cc(O)ccc12 [compound 4]
Fluorescence quantum yield (Φf1) [1]: 0.397

Compound: COC(=O)c1ccc(C(=O)O)cc1-c1c2ccc(=O)cc-2oc2cc(O)ccc12 [compound 5]
Fluorescence quantum yield (Φf1) [1, 12]: 0.0729

Compound: N#Cc1ccc(-c2c3ccc(=O)cc-3oc3cc(O)ccc23)c(C(=O)OCc2ccc(Cl)cc2)c1 [compound 7, 5-cyanofluorescein-4-chlorobenzyl ester]
increase in fluorescence in comparison with a solution not containing the cell-free extract [2]: ~7.2 fold
increase in fluorescence relative to that of compound 2 ([2]; nitrile hydratase reaction, compound 7 versus compound 2): 1.5 fold
HPLC peak of substrate after nitrile hydratase-catalyzed reaction [7]: disappeared, while a peak of a new product generated by the enzymatic reaction appeared
HPLC peak of substrate after nitrilase-catalyzed reaction ([8]; JM109/pSK002-derived cell-free extract, absorption at 500 nm): disappeared, while a peak of a new product generated by the enzymatic reaction appeared
reaction product by HPLC with control cell-free extract ([8]; JM109/pTrc99A-derived cell-free extract): no reaction product was observed
increase in fluorescence in comparison with the absence of the cell-free extract ([9]; JM109/pSK002-derived cell-free extract (containing nitrilase), 5 h after addition): ~7.5 fold
increase in fluorescence with control cell-free extract ([9]; JM109/pTrc99A-derived cell-free extract (having no nitrilase activity)): little increase in its fluorescence
fluorescence quantum yield [5]: 0.154

The remaining lines, values ahead:

Fluorescence quantum yield (Φf1) [1, 12]: 0.565
Compound: COC(=O)c1cc(C(=O)O)ccc1-c1c2ccc(=O)cc-2oc2cc(O)ccc12 [compound 6]

HPLC peak corresponding to ester hydrolysis product 5-CONH2 fluorescein [10]: not observed
Compound: NC(=O)c1ccc(-c2c3ccc(=O)cc-3oc3cc(O)ccc23)c(C(=O)OCc2ccc(Cl)cc2)c1 [compound 9, 5-CONH2 fluorescein 4-chlorobenzyl ester]

HPLC peak corresponding to ester hydrolysis product 5-carboxylfluorescein [11]: not observed
Compound: O=C(O)c1ccc(-c2c3ccc(=O)cc-3oc3cc(O)ccc23)c(C(=O)OCc2ccc(Cl)cc2)c1 [compound 11]
